According to PMC5238392, “Origin of anti-tumor activity of the cysteine-containing GO peptides and further optimization of their cytotoxic properties” (Scientific Reports, 2017):

Assays:
HT-1080 cells = assay: Time-lapse microscopy and side angle light scatter, HT-1080; format: cell-based, human
Description: The data from time-lapse microscopy on HT-1080 cells provide a visual evidence of GO-203-induced apoptosis, Fig. 5 (see also Film S1). […] After 1.5 h we observe the fully developed picture of apoptosis. This is illustrated in the right panel of Fig. 5: three cells in this photograph experience blebbing, while the fourth cell located in the upper right portion of the image has undergone detachment and rounded up (it is soon to enter the blebbing phase). This time line is confirmed by the side angle light scatter data from the flow-cytometry experiment, Fig. 6C. […] This behavior reflects the onset of dynamic blebbing and the concomitant increase in the roughness of the cell surface. In this context it is worth noting that actomyosin cortex contraction and blebbing are subsequent to (and in fact driven by) caspase activation. The condensation of nucleus and cytoplasm in apoptotic cells can also contribute to the increased side scatter.
Figure 5 Time-lapse microscopy of HT-1080 cells. (A) Cells before the addition of the peptide and (B) 1 h 20 min after the addition of 5 μM GO-203.
Figure 6 Dynamics of (A) mitochondrial membrane potential, (B) intracellular ROS levels, and (C) cell refractive properties in suspended HT-1080 cells following the addition of 5 μM GO-203.
The cells were seeded into 35-mm Nunc culture dishes (Thermo Scientific, USA) at 1.2 × 10^5 cells per dish and allowed to attach for 24 h. To monitor intracellular ROS in a time-dependent manner, the cells were incubated for 30 min with 10 μM of carboxy-H2DCFDA (Invitrogen, USA), then harvested with trypsin-EDTA and suspended in a fresh medium. After that GO-203 was added directly to the suspension and cell fluorescence was measured by flow cytometry at multiple time points during the following 2 hours. The same procedure was used for mitochondria-specific fluorescent dye Rhodamine 123 (Thermo Fisher Scientific, USA), which was added to a concentration of 5 μM. The complementary side scatter measurements were conducted using 488 nm laser light. In another series of experiments, we have used the related indicator of oxidative stress, H2DCFDA (Invitrogen, USA). The experiment started by adding GO-203 to the cell growth medium; then 10 min later 5 μM of H2DCFDA has been added. After 20 min incubations with H2DCFDA, the cells were harvested with trypsin-EDTA and suspended in a fresh medium. Cell fluorescence was then immediately measured by flow cytometry. The same procedure was followed for the ROS-insensitive (control) modification of the fluorescent probe, DCFDA.
For live cell microscopy, HT-1080 cells were seeded into 35-mm сell imaging dish with cover glass bottom (Eppendorf, Germany) and allowed to attach for 24 h. The cell response to 5 μM GO-203 exposure was monitored using the Axio Observer. […]

ZR-75-1 cells = assay: Caspase 3/7 activation assay (CellEvent / SYTOX), ZR-75-1; format: cell-based, human; details: 10 μM, 4 h, Fig. 4D
Description: A complementary perspective on GO-203-induced apoptosis is provided by the caspase 3/7 activation assay, Fig. 4. In both HT-1080 and ZR-75-1, the data offer a clear view of the early and late apoptotic populations. The time dependence illustrated in Fig. 4E,F confirms that the onset of apoptosis occurs sufficiently rapidly in both cell lines – by the time of flow-cytometry observations the system has already approached the steady state. In the literature there is some evidence that activation of executioner caspases may precede the translocation of phosphatidylserine to the outer leaf of the membrane. While this could be in principle relevant for comparison between the Annexin V assay and caspase activation assay, one should bear in mind that in our case both assays offer a snapshot of a fairly advanced apoptotic process.
Figure 4 GO-203-induced apoptosis in HT-1080 and ZR-75-1 cells as assessed by the double staining with CellEvent caspase-3/7 green detection reagent and vital dye SYTOX. (A–D) Flow cytometry histograms for the cells incubated for 4 h with 10 μM of GO-203 and the untreated (control) cells. (E–G) Apoptotic fractions in the GO-203-treated and untreated (control) cells as a function of incubation time and GO-203 concentration. TEXT PRINTED IN THE PICTURE: (B) GO-203: HT-1080: IV.(0.11 %); HT-1080: III.(64.49 %); HT-1080: I.(12.21 %); HT-1080: II.(23.20 %) | (D) GO-203: ZR-75-1: IV.(0.40 %); ZR-75-1: III.(35.18 %); ZR-75-1: I.(28.95 %); ZR-75-1: II.(35.47 %)
The adherent cells were rinsed with PBS, harvested using trypsin-EDTA solution and suspended in the growth medium. To analyze cell cycle phase distribution, 200 μg/ml of saponin (Fluka, USA), 250 μg/ml RNase A, and 50 μg/ml of propidium iodide (both Sigma-Aldrich, USA) were added to each sample tube, thus obtaining DNA stain buffer. After 1 h incubation at room temperature, the samples were analyzed by flow cytometry. To detect apoptosis by flow cytometry, CellEvent Caspase-3/7 Green Flow Cytometry Assay Kit (Thermo Fisher Scientific, USA) and Annexin-V FITC conjugate (BD Biosciences, USA) in combination with propidium iodide have been employed following the manufacturer’s protocols.
Cell fluorescence was measured using CytoFLEX (Beckman Coulter, USA) flow cytometer equipped with 3 lasers (405, 488 and 633 nm). Cells were gated on FSC/SSC to remove debris. Mean fluorescence intensity from 10,000 cells was acquired.

[1] = HT-1080, 5 μM, time-lapse microscopy

[R]9CQCRRKN [GO-203, in clinical trials]
Time to fully developed picture of apoptosis (HT-1080 cells; [1]): 1.5 h | Time to morphological features of apoptosis (cell contraction, membrane blebbing) (HT-1080 cells; [1]): within the first hour | Time at which side angle light scatter starts to rise versus control (HT-1080 cells; suspended HT-1080 cells, 5 μM, flow cytometry, 488 nm): 30 min | Onset of apoptosis after application (HT-1080 cells; treated cells, summary statement): ca. 30 min | quadrant I fraction (caspase-3/7 / SYTOX) (ZR-75-1 cells): 28.95% | quadrant II fraction (caspase-3/7 / SYTOX) (ZR-75-1 cells): 35.47% | quadrant III fraction (caspase-3/7 / SYTOX) (ZR-75-1 cells): 35.18% | quadrant IV fraction (caspase-3/7 / SYTOX) (ZR-75-1 cells): 0.40%
